Source: patent publication US6737383B1, “Herbicidal oxadiazolidines” (priority 1999, dated 2004)

Experiments:
wild oat = assay: Test B pre/postemergence wild oat; type: in vivo, Avena fatua; settings: for Wild oats plant response rating: scale of 0 to 10 where 0 is no effect and 10 is complete control
Method in brief: (§1)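 Response is a visual 0-to-10 score relative to untreated plants, where 0 means no effect and 10 means complete control, taken twelve to sixteen days after application. Treatments went onto soil at planting and onto foliage of 1- to 4-leaf plants, using a surfactant-containing non-phytotoxic solvent.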

surinam grass = assay: Test B pre/postemergence surinam grass; type: in vivo, Brachiaria decumbens; settings: for B. signalgrass plant response rating: scale of 0 to 10 where 0 is no effect and 10 is complete control
Method in brief: as §1

duck salad = assay: Test B flood test duck salad; type: in vivo, Heteranthera limosa
Method in brief: (§2)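 Read-out is a visual response score from 0 (no effect) to 10 (complete control), assigned by comparison with untreated controls. Treatment was applied at the 2-leaf stage, and plants stayed in the greenhouse for twelve to sixteen days before scoring.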

purple nutsedge = assay: Test B pre/postemergence purple nutsedge; type: in vivo, Cyperus rotundus; settings: for Nutsedge plant response rating: scale of 0 to 10 where 0 is no effect and 10 is complete control
Method in brief: as §1

morningglory = assay: Test B pre/postemergence morningglory; type: in vivo, Ipomoea hederacea; settings: for Morningglory plant response rating: scale of 0 to 10 where 0 is no effect and 10 is complete control
Method in brief: as §1

smallflower flatsedge = assay: Test B flood test smallflower flatsedge; type: in vivo, Cyperus difformis
Method in brief: as §2

cocklebur = assay: Test B pre/postemergence cocklebur; type: in vivo, Xanthium strumarium; settings: for Cocklebur plant response rating: scale of 0 to 10 where 0 is no effect and 10 is complete control
Method in brief: as §1

crabgrass = assay: Test B pre/postemergence crabgrass; type: in vivo, Digitaria sanguinalis; settings: for Crabgrass plant response rating: scale of 0 to 10 where 0 is no effect and 10 is complete control
Method in brief: as §1

bamyardgrass = assay: Test B flood test barnyardgrass; type: in vivo, Echinochloa crus-galli
Method in brief: as §2

corn = assay: Test B pre/postemergence corn; type: in vivo, Zea mays; settings: for Corn plant response rating: scale of 0 to 10 where 0 is no effect and 10 is complete control
Method in brief: as §1

pigweed = assay: Test B pre/postemergence pigweed; type: in vivo, Amaranthus retroflexus; settings: for Redroot pigweed plant response rating: scale of 0 to 10 where 0 is no effect and 10 is complete control
Method in brief: as §1

giant foxtail = assay: Test B pre/postemergence giant foxtail; type: in vivo, Setaria faberii; settings: for Giant foxtail plant response rating: scale of 0 to 10 where 0 is no effect and 10 is complete control
Method in brief: as §1

rice = assay: Test B flood test rice; type: in vivo, Oryza sativa
Method in brief: as §2

wheat = assay: Test B pre/postemergence wheat; type: in vivo, Triticum aestivum; settings: for Wheat plant response rating: scale of 0 to 10 where 0 is no effect and 10 is complete control
Method in brief: as §1

rape = assay: Test B pre/postemergence rape; type: in vivo, Brassica napus; settings: for Rape plant response rating: scale of 0 to 10 where 0 is no effect and 10 is complete control
Method in brief: as §1

sugar beet = assay: Test B pre/postemergence sugar beet; type: in vivo, Beta vulgaris; settings: for Sugarbeets plant response rating: scale of 0 to 10 where 0 is no effect and 10 is complete control
Method in brief: as §1

[1] = Postemergence, Rate 125 g/ha, scale 0 to 10, 0 is no effect, 10 is complete control
[2] = Postemergence, Rate 250 g/ha, scale 0 to 10, 0 is no effect, 10 is complete control
[3] = Preemergence, Rate 62 g/ha, scale 0 to 10 (0 no effect, 10 complete control)
[4] = Rate 500 g/ha, Postemergence, scale 0 to 10, 0 no effect, 10 complete control
[5] = Postemergence (flood test), Rate 125 g/ha, scale 0 to 10, 0 is no effect, 10 is complete control
[6] = Rate 62 g/ha, Postemergence (flood test species), scale of 0 to 10 where 0 is no effect and 10 is complete control
[7] = Rate 500 g/ha, listed under Postemergence (flood test species), scale 0 to 10, 0 no effect, 10 complete control
[8] = flood test species, listed under Postemergence, Rate 250 g/ha, scale 0 to 10, 0 is no effect, 10 is complete control

CCN(CC)C(=O)n1oc(=O)n(-c2ccccc2C)c1=O [Compound 364]
10: Giant foxtail plant response rating (giant foxtail; Preemergence, Rate 500 g/ha)
0: Plant response rating, Wild oats (wild oat; [1]) | Plant response rating, Wild oats (wild oat; [2]) | Plant response rating, Wild oats (wild oat; [3]) | Wild oats plant response rating (0 to 10 scale) (wild oat; Preemergence, Rate 125 g/ha) | Wild oats plant response rating (wild oat; Preemergence, Rate 250 g/ha) | Wild oats plant response rating (wild oat; Rate 62 g/ha, Postemergence) | Plant response rating, Wild oats (wild oat; [4]) | Plant response rating, B. signalgrass (surinam grass; [1]) | Plant response rating, B. signalgrass (surinam grass; [2]) | Plant response rating, B. signalgrass (surinam grass; [3]) | B. signalgrass plant response rating (0 to 10 scale, 0 is no effect, 10 is complete control) (surinam grass; Preemergence, Rate 125 g/ha) | B. signalgrass plant response rating (surinam grass; Preemergence, Rate 250 g/ha) | B. signalgrass plant response rating (surinam grass; Rate 62 g/ha, Postemergence) | Plant response rating, Ducksalad (duck salad; [5]) | Ducksalad plant response rating (duck salad; [6]) | Plant response rating, Ducksalad (duck salad; [7]) | Plant response rating, Ducksalad (duck salad; [8]) | Plant response rating, Nutsedge (purple nutsedge; [1]) | Plant response rating, Nutsedge (purple nutsedge; [2]) | Plant response rating, Nutsedge (purple nutsedge; [3]) | Nutsedge plant response rating (0 to 10 scale) (purple nutsedge; Preemergence, Rate 125 g/ha) | Nutsedge plant response rating (purple nutsedge; Preemergence, Rate 250 g/ha) | Nutsedge plant response rating (purple nutsedge; Rate 62 g/ha, Postemergence) | Plant response rating, Nutsedge (purple nutsedge; [4]) | Plant response rating, Morningglory (morningglory; [1]) | Plant response rating, Morningglory (morningglory; [2]) | Plant response rating, Morningglory (morningglory; [3]) | Morningglory plant response rating (0 to 10 scale) (morningglory; Preemergence, Rate 125 g/ha) | Morningglory plant response rating (morningglory; Preemergence, Rate 250 g/ha) | Morningglory plant response rating (morningglory; Preemergence, Rate 500 g/ha) | Morningglory plant response rating (morningglory; Rate 62 g/ha, Postemergence) | Plant response rating, S. Flatsedge (smallflower flatsedge; [5]) | S. Flatsedge plant response rating (smallflower flatsedge; [6]) | Plant response rating, S. Flatsedge (smallflower flatsedge; [8]) | Plant response rating, Cocklebur (cocklebur; [1]) | Plant response rating, Cocklebur (cocklebur; [2]) | Plant response rating, Cocklebur (cocklebur; [3]) | Cocklebur plant response rating (0 to 10 scale) (cocklebur; Preemergence, Rate 125 g/ha) | Cocklebur plant response rating (cocklebur; Preemergence, Rate 250 g/ha) | Cocklebur plant response rating (cocklebur; Preemergence, Rate 500 g/ha) | Cocklebur plant response rating (cocklebur; Rate 62 g/ha, Postemergence) | Plant response rating, Crabgrass (crabgrass; [1]) | Plant response rating, Crabgrass (crabgrass; [2]) | Plant response rating, Crabgrass (crabgrass; [3]) | Crabgrass plant response rating (0 to 10 scale) (crabgrass; Preemergence, Rate 125 g/ha) | Crabgrass plant response rating (crabgrass; Rate 62 g/ha, Postemergence) | Plant response rating, Barnyardgrass (bamyardgrass; [5]) | Barnyardgrass plant response rating (bamyardgrass; [6]) | Plant response rating, Barnyardgrass (bamyardgrass; [7]) | Plant response rating, Barnyardgrass (bamyardgrass; [8]) | Plant response rating, Corn (corn; [1]) | Plant response rating, Corn (corn; [3]) | Corn plant response rating (0 to 10 scale) (corn; Preemergence, Rate 125 g/ha) | Corn plant response rating (corn; Preemergence, Rate 250 g/ha) | Corn plant response rating (corn; Preemergence, Rate 500 g/ha) | Corn plant response rating (corn; Rate 62 g/ha, Postemergence) | Plant response rating, Redroot pigweed (pigweed; [1]) | Plant response rating, Redroot pigweed (pigweed; [2]) | Plant response rating, Redroot pigweed (pigweed; [3]) | Redroot pigweed plant response rating (0 to 10 scale) (pigweed; Preemergence, Rate 125 g/ha) | Redroot pigweed plant response rating (pigweed; Preemergence, Rate 250 g/ha) | Redroot pigweed plant response rating (pigweed; Preemergence, Rate 500 g/ha) | Redroot pigweed plant response rating (pigweed; Rate 62 g/ha, Postemergence) | Plant response rating, Redroot pigweed (pigweed; [4]) | Giant foxtail plant response rating (giant foxtail; Rate 62 g/ha, Postemergence) | Plant response rating, Rice (rice; [5]) | Rice plant response rating (rice; [6]) | Plant response rating, Rice (rice; [7]) | Plant response rating, Rice (rice; [8]) | Plant response rating, Wheat (wheat; [1]) | Plant response rating, Wheat (wheat; [2]) | Plant response rating, Wheat (wheat; [3]) | Wheat plant response rating (0 to 10 scale) (wheat; Preemergence, Rate 125 g/ha) | Wheat plant response rating (wheat; Preemergence, Rate 250 g/ha) | Wheat plant response rating (wheat; Preemergence, Rate 500 g/ha) | Wheat plant response rating (wheat; Rate 62 g/ha, Postemergence) | Plant response rating, Wheat (wheat; [4]) | Plant response rating, Rape (rape; [1]) | Plant response rating, Rape (rape; [2]) | Plant response rating, Rape (rape; [3]) | Rape plant response rating (0 to 10 scale) (rape; Preemergence, Rate 125 g/ha) | Rape plant response rating (rape; Preemergence, Rate 250 g/ha) | Rape plant response rating (rape; Rate 62 g/ha, Postemergence) | Plant response rating, Rape (rape; [4]) | Plant response rating, Sugarbeets (sugar beet; [1]) | Plant response rating, Sugarbeets (sugar beet; [2]) | Plant response rating, Sugarbeets (sugar beet; [3]) | Sugarbeets plant response rating (0 to 10 scale) (sugar beet; Preemergence, Rate 125 g/ha) | Sugarbeets plant response rating (sugar beet; Preemergence, Rate 250 g/ha) | Sugarbeets plant response rating (sugar beet; Preemergence, Rate 500 g/ha) | Sugarbeets plant response rating (sugar beet; Rate 62 g/ha, Postemergence)
1: Plant response rating, B. signalgrass (surinam grass; [4]) | Plant response rating, Sugarbeets (sugar beet; [4])
3: Wild oats plant response rating (wild oat; Preemergence, Rate 500 g/ha) | B. signalgrass plant response rating (surinam grass; Preemergence, Rate 500 g/ha) | Plant response rating, S. Flatsedge (smallflower flatsedge; [7]) | Plant response rating, Corn (corn; [4]) | Plant response rating, Giant foxtail (giant foxtail; [1]) | Plant response rating, Giant foxtail (giant foxtail; [3])
6: Plant response rating, Giant foxtail (giant foxtail; [2]) | Giant foxtail plant response rating (0 to 10 scale) (giant foxtail; Preemergence, Rate 125 g/ha)
5: Crabgrass plant response rating (crabgrass; Preemergence, Rate 500 g/ha)
2: Plant response rating, Cocklebur (cocklebur; [4]) | Crabgrass plant response rating (crabgrass; Preemergence, Rate 250 g/ha) | Plant response rating, Crabgrass (crabgrass; [4]) | Plant response rating, Corn (corn; [2]) | Rape plant response rating (rape; Preemergence, Rate 500 g/ha)
4: Plant response rating, Morningglory (morningglory; [4])
9: Giant foxtail plant response rating (giant foxtail; Preemergence, Rate 250 g/ha)
8: Plant response rating, Giant foxtail (giant foxtail; [4])
